Assay results: PubChem BioAssay (NCI)
Where “and” joins values, the source holds several entries; their conditions need not be identical. Equal entries are not always repeated.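 These data come from cells grown in 96-well plates and exposed to compound for 48 hours at five concentrations. GI50 is the concentration that inhibits growth by half. The concentration for full growth arrest is given as TGI.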

Experiments:
Assay in all cases: DTP human tumour cell line panel, 48 h
SF-539 CNS = system: SF-539 CNS
OVCAR-5 ovarian = system: OVCAR-5 ovarian
UACC-257 melanoma = system: UACC-257 melanoma
K-562 leukemia = system: K-562 leukemia
MCF7 breast = system: MCF7 breast
PC-3 prostate = system: PC-3 prostate
UO-31 renal = system: UO-31 renal
NCI-H460 lung = system: NCI-H460 lung
HS 578T breast = system: HS 578T breast
MOLT-4 leukemia = system: MOLT-4 leukemia

| SMILES | GI50 (SF-539 CNS) | TGI (SF-539 CNS) | GI50 (OVCAR-5 ovarian) | TGI (OVCAR-5 ovarian) | GI50 (UACC-257 melanoma) | TGI (UACC-257 melanoma) | GI50 (K-562 leukemia) | TGI (K-562 leukemia) | GI50 (MCF7 breast) | TGI (MCF7 breast) | GI50 (PC-3 prostate) | TGI (PC-3 prostate) | GI50 (UO-31 renal) | TGI (UO-31 renal) | TGI (NCI-H460 lung) | GI50 (HS 578T breast) | TGI (MOLT-4 leukemia) | GI50 (NCI-H460 lung) | TGI (HS 578T breast) | GI50 (MOLT-4 leukemia) |
| --- | --- | --- | --- | --- | --- | --- | --- | --- | --- | --- | --- | --- | --- | --- | --- | --- | --- | --- | --- | --- |
| CO[C@H]1C[C@@H]2CC[C@@H](C)[C@@](O)(O2)C(=O)C(=O)N2CCCC[C@H]2C(=O)O[C@H]([C@H](C)C[C@@H]2CC[C@@H](OCCO)[C@H](OC)C2)CC(=O)[C@H](C)C=C(C)[C@@H](O)[C@@H](OC)C(=O)[C@H](C)C[C@H](C)/C=C/C=C/C=C1C | < 0.01 µM | 15.3 µM | < 0.01 µM | 20.3 µM | 5.88 µM | 22.2 µM | 2.41 µM | 31.4 µM | < 0.01 µM | 14 µM | < 0.01 µM | 16.7 µM | < 0.01 µM | 14.5 µM | 19.4 µM | < 0.01 µM | 20.3 µM | – | – | – |
| Cc1cc([N+](=O)[O-])c2ccccc2[n+]1[O-] | 0.303 µM and 0.214 µM | 1.2 µM and 0.867 µM | 2.02 µM and 2.26 µM | 7.21 µM and 7.12 µM | 1.71 µM and 1.49 µM | 4.45 µM and 4.7 µM | 0.156 µM and 0.0991 µM | 4.28 µM and 3.04 µM | 0.0489 µM and 0.0342 µM | 0.461 µM and 0.45 µM | 0.165 µM and 0.149 µM | 1.01 µM and 0.663 µM | 0.215 µM and 0.22 µM | 0.681 µM and 0.903 µM | 0.129 µM and 0.109 µM | 1.18 µM and 0.989 µM | 7.8 µM and 5.95 µM | 0.0307 µM and 0.0282 µM | 5.74 µM and 4.8 µM | 0.869 µM and 1.19 µM |
| CC1=C(Nc2ccc(N3CCN(C)CC3)cc2)C(=O)c2cncnc2C1=O | 13.5 µM | 26.9 µM | 3.66 µM | 16.9 µM | 2.34 µM | 6.42 µM | 2.78 µM | > 100 µM | 1.92 µM | 4.19 µM | 3.05 µM | 11.9 µM | 13.9 µM | 33.5 µM | 11.4 µM | 19.5 µM | 6.39 µM | 3.31 µM | 55.1 µM | 2.01 µM |
| CCc1nc(N)nc(N)c1-c1ccc(N2CCNCC2)cc1 | – | > 100 µM | – | > 100 µM | – | > 86 µM | – | > 87.2 µM | – | > 94.3 µM | – | > 100 µM | – | > 100 µM | > 100 µM | – | > 91.8 µM | – | > 100 µM | – |
| CSc1ccc2c(c1)C(N1CCN(C)CC1)Cc1ccccc1S2 (stereo unspecified) | 1.87 µM | 18.9 µM and 3.61 µM | 1.95 µM | 7.25 µM and 3.67 µM | 1.54 µM | 5.43 µM and 3.03 µM | – | 4.5 µM | 1.79 µM | 7.22 µM and 3.58 µM | 1.89 µM | 17.6 µM and 6.51 µM | 1.8 µM | 13.8 µM and 5.44 µM | 7.12 µM and 3.45 µM | 2.51 µM | 8.67 µM and 3.87 µM | 1.74 µM | 15.9 µM and 10.9 µM | 1.89 µM |
| COC(=O)CSSCc1ccc([N+](=O)[O-])cc1 | – | 32.7 µM | – | 35.6 µM | – | 98.4 µM | – | > 100 µM | – | 34.3 µM | – | 81 µM | – | 27.9 µM | > 100 µM | – | > 100 µM | – | 59.4 µM | – |
| COc1cc2c3c(n(C)c(=O)c2cc1OC)-c1ccc(C#N)cc1C3=O | > 100 µM | > 100 µM | > 100 µM | > 100 µM | > 100 µM | > 100 µM | > 100 µM | > 100 µM | 51.1 µM | > 100 µM | > 100 µM | > 100 µM | > 100 µM | > 100 µM | > 100 µM | > 100 µM | > 100 µM | > 100 µM | > 100 µM | > 100 µM |
